Measured values from patent publication US9969742B2, “Imidazotriazinone compounds” (Ironwood Pharmaceuticals, Inc., priority 2012, dated 2018).
Where two headings read alike, the source gives them in different places.

How the values were obtained:
Assay type in all cases: biochemical
[1] = target: T1, PDE1A (Homo sapiens, UniProt P54750); assay: Phosphodiesterase enzyme screening assay, PDE1A; conditions: value greater than 1 indicates greater selectivity for PDE9A2
T1 construct: purchased Reaction Biology Corporation, Malvern, Pa
In short: (§1)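 Microfluidic mobility-shift assay; values from quadruplicate wells relative to controls. Conditions: 4.0 μM cGMP, 5 mM MgCl2, pH 7.5 HEPES, 1 h R.T., EDTA stop.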

[2] = target: T2, PDE9A2 (Homo sapiens, UniProt O76083); assay: Phosphodiesterase enzyme screening assay, PDE9A2; conditions: read-out: Band (PDE9A2 IC50)
T2 construct: purchased Reaction Biology Corporation, Malvern, Pa
In short: as §1

[3] = target: T3, PDE1B (Homo sapiens, UniProt Q01064); assay: Phosphodiesterase enzyme screening assay, PDE1B; conditions: value greater than 1 indicates greater selectivity for PDE9A2
T3 construct: purchased Reaction Biology Corporation, Malvern, Pa
In short: as §1

[4] = ratio of IC50 values, PDE1A versus PDE9A2
[5] = ratio of IC50 values, PDE1B versus PDE9A2
[6] = Table 1, 10 concentrations, 4.0 μM cGMP substrate, 1 hour at R.T.

T2 sequence (O76083 1-533 isoform O76083-2): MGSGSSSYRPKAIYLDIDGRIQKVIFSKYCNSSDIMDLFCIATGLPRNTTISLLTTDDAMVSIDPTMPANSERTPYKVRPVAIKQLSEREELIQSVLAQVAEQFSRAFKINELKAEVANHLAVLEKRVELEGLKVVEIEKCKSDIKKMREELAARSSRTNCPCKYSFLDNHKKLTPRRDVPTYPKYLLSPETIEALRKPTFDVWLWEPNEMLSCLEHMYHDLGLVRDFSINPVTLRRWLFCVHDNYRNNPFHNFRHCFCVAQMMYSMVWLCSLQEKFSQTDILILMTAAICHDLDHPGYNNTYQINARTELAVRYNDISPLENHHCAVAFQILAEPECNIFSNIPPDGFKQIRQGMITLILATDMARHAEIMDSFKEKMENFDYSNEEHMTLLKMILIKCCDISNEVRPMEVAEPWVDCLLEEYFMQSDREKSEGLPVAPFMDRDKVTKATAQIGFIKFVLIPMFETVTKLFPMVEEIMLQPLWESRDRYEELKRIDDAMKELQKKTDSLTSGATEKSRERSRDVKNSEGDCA
T1 sequence (P54750 whole entry): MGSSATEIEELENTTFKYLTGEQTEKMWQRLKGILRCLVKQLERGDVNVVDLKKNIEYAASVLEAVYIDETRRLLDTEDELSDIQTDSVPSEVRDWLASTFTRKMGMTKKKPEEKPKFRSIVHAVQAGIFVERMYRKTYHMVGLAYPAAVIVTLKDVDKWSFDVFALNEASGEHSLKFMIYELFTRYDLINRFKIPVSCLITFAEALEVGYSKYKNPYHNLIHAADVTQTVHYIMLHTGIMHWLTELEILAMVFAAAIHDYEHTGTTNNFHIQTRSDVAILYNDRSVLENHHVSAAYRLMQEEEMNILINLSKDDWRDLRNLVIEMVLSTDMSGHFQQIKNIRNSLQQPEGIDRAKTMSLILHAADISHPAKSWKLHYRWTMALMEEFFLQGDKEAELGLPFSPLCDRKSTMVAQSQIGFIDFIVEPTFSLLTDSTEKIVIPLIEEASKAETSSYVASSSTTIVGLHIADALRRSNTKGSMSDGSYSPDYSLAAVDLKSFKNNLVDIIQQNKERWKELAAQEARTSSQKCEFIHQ
T3 sequence (Q01064 whole entry): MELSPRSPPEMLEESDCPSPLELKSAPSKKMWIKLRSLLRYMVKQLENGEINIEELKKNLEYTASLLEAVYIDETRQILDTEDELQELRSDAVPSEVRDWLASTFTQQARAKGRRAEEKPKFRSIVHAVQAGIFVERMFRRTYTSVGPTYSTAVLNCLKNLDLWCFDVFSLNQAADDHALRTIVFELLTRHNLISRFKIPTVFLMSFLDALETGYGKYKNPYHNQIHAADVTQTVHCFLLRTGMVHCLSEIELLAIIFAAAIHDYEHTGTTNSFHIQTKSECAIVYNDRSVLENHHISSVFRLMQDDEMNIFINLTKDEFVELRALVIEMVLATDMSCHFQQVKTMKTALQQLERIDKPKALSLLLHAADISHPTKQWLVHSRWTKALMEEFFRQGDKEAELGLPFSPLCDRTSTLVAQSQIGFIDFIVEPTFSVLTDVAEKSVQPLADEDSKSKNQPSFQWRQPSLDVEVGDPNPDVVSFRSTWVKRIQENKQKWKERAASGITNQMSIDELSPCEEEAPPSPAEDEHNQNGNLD

SMILES	PDE1A selectivity (versus PDE9A2) [1, 4]	IC50 [2] [µM]	PDE1B selectivity (versus PDE9A2) [3, 5]	PDE1A selectivity (versus PDE9A2) ([1]; Table 1, ratio of IC50 values)	IC50 [2, 6] [µM]	PDE1B selectivity (versus PDE9A2) ([3]; Table 1, ratio of IC50 values)	further results
CC1CN(Cc2ccccn2)CC1c1nn2c(C3CCOCC3)ncc2c(=O)[nH]1 (single isomer, unassigned; (+)) [(+)-2-((3,4-trans)-4-methyl-1-(pyridin-2-ylmethyl)pyrrolidin-3-yl)-7-(tetrahydro-2H-pyran-4-yl)imidazo[5,1-f][1,2,4]triazin-4(3H)-one]				373	< 1	470	
CC1CN(c2ncccn2)CC1c1nn2c(C3CCOCC3)ncc2c(=O)[nH]1 (single isomer, unassigned; (+)) [(+)-2-((3,4-trans)-4-methyl-1-(pyrimidin-2-yl)pyrrolidin-3-yl)-7-(tetrahydro-2H-pyran-4-yl)imidazo[5,1-f][1,2,4]triazin-4(3H)-one]				1	< 1	1	
Cc1cnccc1-c1ncc2c(=O)[nH]c(C3CN(Cc4ncccn4)CC3C)nn12 (single isomer, unassigned; (+)) [(+)-2-((3,4-trans)-4-methyl-1-(pyrimidin-2-ylmethyl)pyrrolidin-3-yl)-7-(3-methylpyridin-4-yl)imidazo[5,1-f][1,2,4]triazin-4(3H)-one]							PDE1A selectivity (versus PDE9A2) ([1]; ratio of IC50 values PDE1A / PDE9A2): 85; IC50 ([2]; 4.0 μM cGMP substrate, 1 hour at R.T.): < 1 µM; PDE1B selectivity (versus PDE9A2) ([3]; ratio of IC50 values PDE1B / PDE9A2): 63
Cc1ccncc1-c1ncc2c(=O)[nH]c(C3CN(Cc4ncccn4)CC3C)nn12 (single isomer, unassigned; (+)) [(+)-2-((3,4-trans)-4-methyl-1-(pyrimidin-2-ylmethyl)pyrrolidin-3-yl)-7-(4-methylpyridin-3-yl)imidazo[5,1-f][1,2,4]triazin-4(3H)-one]	85	< 1	127				
CC1CN(Cc2ccncn2)CC1c1nn2c(C3CCOCC3)ncc2c(=O)[nH]1 (single isomer, unassigned; (+)) [(+)-2-((3,4-trans)-4-methyl-1-(pyrimidin-4-ylmethyl)pyrrolidin-3-yl)-7-(tetrahydro-2H-pyran-4-yl)imidazo[5,1-f][1,2,4]triazin-4(3H)-one]				136	< 1	174	
CC1CN(Cc2ccc3ncncc3c2)CC1c1nn2c(C3CCOCC3)ncc2c(=O)[nH]1 (single isomer, unassigned; (+)) [(+)-2-((3,4-trans)-4-methyl-1-(quinazolin-6-ylmethyl)pyrrolidin-3-yl)-7-(tetrahydro-2H-pyran-4-yl)imidazo[5,1-f][1,2,4]triazin-4(3H)-one]				890	< 1	1067	

Continued, in another order:

PDE1A selectivity (versus PDE9A2) [1, 4]	IC50 [2] [µM]	PDE1B selectivity (versus PDE9A2) [3, 5]	PDE1A selectivity (versus PDE9A2) ([1]; Table 1, ratio of IC50 values)	IC50 [2, 6] [µM]	PDE1B selectivity (versus PDE9A2) ([3]; Table 1, ratio of IC50 values)	SMILES	further results
73	< 1	148				Cc1ccccc1-c1ncc2c(=O)[nH]c(C3CN(Cc4ccccn4)CC3C)nn12 (single isomer, unassigned; (+)) [(+)-2-((3,4-trans)-4-methyl-1-(pyridin-2-ylmethyl)pyrrolidin-3-yl)-7-(o-tolyl)imidazo[5,1-f][1,2,4]triazin-4(3H)-one]	
103	< 1	183				Cc1ccccc1-c1ncc2c(=O)[nH]c(C3CN(Cc4cccnc4)CC3C)nn12 (single isomer, unassigned; (+)) [(+)-2-((3,4-trans)-4-methyl-1-(pyridin-3-ylmethyl)pyrrolidin-3-yl)-7-(o-tolyl)imidazo[5,1-f][1,2,4]triazin-4(3H)-one]	
			84	< 1	119	Cc1ccccc1-c1ncc2c(=O)[nH]c(C3CN(Cc4ncccn4)CC3C)nn12 (single isomer, unassigned; (+)) [(+)-2-((3,4-trans)-4-methyl-1-(pyrimidin-2-ylmethyl)pyrrolidin-3-yl)-7-(o-tolyl)imidazo[5,1-f][1,2,4]triazin-4(3H)-one]	
